{
  "source": "ChEMBL document CHEMBL4680265",
  "about": "“Anti-tubulin agent vinorelbine inhibits metastasis of cancer cells by regulating epithelial-mesenchymal transition” (Eur J Med Chem, 2020)",
  "key": {"NCI-H1975 [1]": {"system": "NCI-H1975", "test": "Antimigratory activity against human NCI-H1975 cells assessed as reduction in migration at 1 nM measured after 96 hrs by scratch wound healing based inverted microscopic analysis relative to control", "assay_type": "functional"}, "NCI-H1975 [2]": {"system": "NCI-H1975", "test": "Antimigratory activity against human NCI-H1975 cells assessed as reduction in migration at 5 nM measured after 96 hrs by scratch wound healing based inverted microscopic analysis relative to control", "assay_type": "functional"}, "NCI-H1975 [3]": {"system": "NCI-H1975", "test": "Antimigratory activity against human NCI-H1975 cells assessed as reduction in migration at 10 nM measured after 96 hrs by scratch wound healing based inverted microscopic analysis relative to control", "assay_type": "functional"}, "HepG2 [4]": {"system": "HepG2", "test": "Antimigratory activity against human HepG2 cells assessed as reduction in migration at 0.1 nM measured after 96 hrs by scratch wound healing based inverted microscopic analysis relative to control", "assay_type": "functional"}, "HepG2 [5]": {"system": "HepG2", "test": "Antimigratory activity against human HepG2 cells assessed as reduction in migration at 1 nM measured after 96 hrs by scratch wound healing based inverted microscopic analysis relative to control", "assay_type": "functional"}, "HepG2 [6]": {"system": "HepG2", "test": "Antimigratory activity against human HepG2 cells assessed as reduction in migration at 10 nM measured after 96 hrs by scratch wound healing based inverted microscopic analysis relative to control", "assay_type": "functional"}, "HCT-116 [7]": {"system": "HCT-116", "test": "Antimigratory activity against human HCT-116 cells assessed as reduction in migration at 1 nM measured after 96 hrs by scratch wound healing based inverted microscopic analysis relative to control", "assay_type": "functional"}, "HCT-116 [8]": {"system": "HCT-116", "test": "Antimigratory activity against human HCT-116 cells assessed as reduction in migration at 5 nM measured after 96 hrs by scratch wound healing based inverted microscopic analysis relative to control", "assay_type": "functional"}, "HCT-116 [9]": {"system": "HCT-116", "test": "Antimigratory activity against human HCT-116 cells assessed as reduction in migration at 10 nM measured after 96 hrs by scratch wound healing based inverted microscopic analysis relative to control", "assay_type": "functional"}, "NCI-H1975 [10]": {"system": "NCI-H1975", "test": "Antiinvasive activity against human NCI-H1975 cells assessed as reduction in invasion at 1 to 10 nM measured after 48 hrs by DAPI staining based transwell assay", "assay_type": "functional, cell-based", "details": "dose 1-10 nM"}, "HepG2 [11]": {"system": "HepG2", "test": "Antiinvasive activity against human HepG2 cells assessed as reduction in invasion at 0.1 to 10 nM measured after 48 hrs by DAPI staining based transwell assay", "assay_type": "functional, cell-based", "details": "dose 0.1-10 nM"}, "HCT-116 [12]": {"system": "HCT-116", "test": "Antiinvasive activity against human HCT-116 cells assessed as reduction in invasion at 1 to 10 nM measured after 48 hrs by DAPI staining based transwell assay", "assay_type": "functional, cell-based", "details": "dose 1-10 nM"}, "NCI-H1975 [13]": {"system": "NCI-H1975", "test": "Inhibition of epithelial-mesenchymal transition in human NCI-H1975 cells assessed as increase in E-cadherin expression at 1 to 100 nM by Western blot analysis", "assay_type": "functional, cell-based", "details": "dose 1-100 nM"}, "NCI-H1975 [14]": {"system": "NCI-H1975", "test": "Inhibition of epithelial-mesenchymal transition in human NCI-H1975 cells assessed as increase in Vimentin expression at 1 to 100 nM by Western blot analysis", "assay_type": "functional, cell-based", "details": "dose 1-100 nM"}, "NCI-H1975 [15]": {"system": "NCI-H1975", "test": "Inhibition of epithelial-mesenchymal transition in human NCI-H1975 cells assessed as decrease in N-cadherin expression at 1 to 100 nM by Western blot analysis", "assay_type": "functional, cell-based", "details": "dose 1-100 nM"}, "HepG2 [16]": {"system": "HepG2", "test": "Inhibition of epithelial-mesenchymal transition in human HepG2 cells assessed as […] in E-cadherin expression at 0.1 to 10 uM by Western blot analysis", "assay_type": "functional, cell-based", "details": "dose 0.1-10 µM"}, "HepG2 [17]": {"system": "HepG2", "test": "Inhibition of epithelial-mesenchymal transition in human HepG2 cells assessed as decrease in Vimentin expression at 0.1 to 10 uM by Western blot analysis", "assay_type": "functional, cell-based", "details": "dose 0.1-10 µM"}, "HepG2 [18]": {"system": "HepG2", "test": "Inhibition of epithelial-mesenchymal transition in human HepG2 cells assessed as decrease in N-cadherin expression at 0.1 to 10 uM by Western blot analysis", "assay_type": "functional, cell-based", "details": "dose 0.1-10 µM"}, "HCT-116 [19]": {"system": "HCT-116", "test": "Inhibition of epithelial-mesenchymal transition in human HCT-116 cells assessed as increase in E-cadherin expression at 0.01 to 1 uM by Western blot analysis", "assay_type": "functional, cell-based", "details": "dose 0.01-1 µM"}, "HCT-116 [20]": {"system": "HCT-116", "test": "Inhibition of epithelial-mesenchymal transition in human HCT-116 cells assessed as decrease in Vimentin expression at 0.01 to 1 uM by Western blot analysis", "assay_type": "functional, cell-based", "details": "dose 0.01-1 µM"}, "HCT-116 [21]": {"system": "HCT-116", "test": "Inhibition of epithelial-mesenchymal transition in human HCT-116 cells assessed as decrease in N-cadherin expression at 0.01 to 1 uM by Western blot analysis", "assay_type": "functional, cell-based", "details": "dose 0.01-1 µM"}, "NCI-H1975 [22]": {"system": "NCI-H1975", "test": "Inhibition of epithelial-mesenchymal transition in human NCI-H1975 cells assessed as downregulation of MMP-2 by Western blot analysis", "assay_type": "functional, cell-based", "details": "dose 1-100 nM"}, "NCI-H1975 [23]": {"system": "NCI-H1975", "test": "Inhibition of epithelial-mesenchymal transition in human NCI-H1975 cells assessed as downregulation of MMP-9 by Western blot analysis", "assay_type": "functional, cell-based", "details": "dose 1-100 nM"}, "NCI-H1975 [24]": {"system": "NCI-H1975", "test": "Inhibition of epithelial-mesenchymal transition in human NCI-H1975 cells assessed as downregulation of Snail-1 by Western blot analysis", "assay_type": "functional, cell-based", "details": "dose 1-100 nM"}, "HepG2 [25]": {"system": "HepG2", "test": "Inhibition of epithelial-mesenchymal transition in human HepG2 cells assessed as downregulation of MMP-2 by Western blot analysis", "assay_type": "functional, cell-based", "details": "dose 0.1-10 µM"}, "HepG2 [26]": {"system": "HepG2", "test": "Inhibition of epithelial-mesenchymal transition in human HepG2 cells assessed as downregulation of MMP-9 by Western blot analysis", "assay_type": "functional, cell-based", "details": "dose 0.1-10 µM"}, "HepG2 [27]": {"system": "HepG2", "test": "Inhibition of epithelial-mesenchymal transition in human HepG2 cells assessed as downregulation of Snail-1 by Western blot analysis", "assay_type": "functional, cell-based", "details": "dose 0.1-10 µM"}, "HCT-116 [28]": {"system": "HCT-116", "test": "Inhibition of epithelial-mesenchymal transition in human HCT-116 cells assessed as downregulation of MMP-2 by Western blot analysis", "assay_type": "functional, cell-based", "details": "dose 0.01-1 µM"}, "HCT-116 [29]": {"system": "HCT-116", "test": "Inhibition of epithelial-mesenchymal transition in human HCT-116 cells assessed as downregulation of MMP-9 by Western blot analysis", "assay_type": "functional, cell-based", "details": "dose 0.01-1 µM"}, "HCT-116 [30]": {"system": "HCT-116", "test": "Inhibition of epithelial-mesenchymal transition in human HCT-116 cells assessed as downregulation of Snail-1 by Western blot analysis", "assay_type": "functional, cell-based", "details": "dose 0.01-1 µM"}},
  "note": "The source made the active and inactive calls. No cut-off for these calls is given here.",
  "data": [
    {"molecule": "CCC1=C[C@@H]2CN(C1)Cc1c([nH]c3ccccc13)[C@@](C(=O)OC)(c1cc3c(cc1OC)N(C)[C@H]1[C@@](O)(C(=O)OC)[C@H](OC(C)=O)[C@]4(CC)C=CCN5CC[C@]31[C@@H]54)C2", "note": "[VINORELBINE]", "values": [
      {"measurement": "inhibition at 0.001 µM", "setting": "NCI-H1975 [1]", "result": 0.7, "unit": "%"},
      {"measurement": "inhibition at 0.005 µM", "setting": "NCI-H1975 [2]", "result": 52.6, "unit": "%"},
      {"measurement": "inhibition at 0.01 µM", "setting": "NCI-H1975 [3]", "result": 70.5, "unit": "%"},
      {"measurement": "inhibition at 0.0001 µM", "setting": "HepG2 [4]", "result": 11.7, "unit": "%"},
      {"measurement": "inhibition at 0.001 µM", "setting": "HepG2 [5]", "result": 33.1, "unit": "%"},
      {"measurement": "inhibition at 0.01 µM", "setting": "HepG2 [6]", "result": 47.4, "unit": "%"},
      {"measurement": "inhibition at 0.001 µM", "setting": "HCT-116 [7]", "result": 13, "unit": "%"},
      {"measurement": "inhibition at 0.005 µM", "setting": "HCT-116 [8]", "result": 28.5, "unit": "%"},
      {"measurement": "inhibition at 0.01 µM", "setting": "HCT-116 [9]", "result": 50.9, "unit": "%"},
      {"measurement": "inhibition", "setting": "NCI-H1975 [10]", "result": "Active"},
      {"measurement": "inhibition", "setting": "HepG2 [11]", "result": "Active"},
      {"measurement": "inhibition", "setting": "HCT-116 [12]", "result": "Active"},
      {"measurement": "inhibition", "setting": "NCI-H1975 [13]", "result": "Active"},
      {"measurement": "inhibition", "setting": "NCI-H1975 [14]", "result": "Active"},
      {"measurement": "inhibition", "setting": "NCI-H1975 [15]", "result": "Active"},
      {"measurement": "inhibition", "setting": "HepG2 [16]", "result": "inactive"},
      {"measurement": "inhibition", "setting": "HepG2 [17]", "result": "inactive"},
      {"measurement": "inhibition", "setting": "HepG2 [18]", "result": "Active"},
      {"measurement": "inhibition", "setting": "HCT-116 [19]", "result": "Active"},
      {"measurement": "inhibition", "setting": "HCT-116 [20]", "result": "inactive"},
      {"measurement": "inhibition", "setting": "HCT-116 [21]", "result": "Active"},
      {"measurement": "inhibition", "setting": "NCI-H1975 [22]", "result": "Dose-dependent effect"},
      {"measurement": "inhibition", "setting": "NCI-H1975 [23]", "result": "Dose-dependent effect"},
      {"measurement": "inhibition", "setting": "NCI-H1975 [24]", "result": "Dose-dependent effect"},
      {"measurement": "inhibition", "setting": "HepG2 [25]", "result": "Dose-dependent effect"},
      {"measurement": "inhibition", "setting": "HepG2 [26]", "result": "Dose-dependent effect"},
      {"measurement": "inhibition", "setting": "HepG2 [27]", "result": "Dose-dependent effect"},
      {"measurement": "inhibition", "setting": "HCT-116 [28]", "result": "Dose-dependent effect"},
      {"measurement": "inhibition", "setting": "HCT-116 [29]", "result": "Dose-dependent effect"},
      {"measurement": "inhibition", "setting": "HCT-116 [30]", "result": "Dose-dependent effect"}
    ]}
  ]
}
